Laboratory results from US9675073B2, “Insecticidal compounds based on N-arylsulfanylmethylcarboxamidearylthiosulfonamides derivatives” (Syngenta Participations AG, priority 2012, dated 2017).
Where two headings read alike, the source gives them in different places.

What was measured:
Type in all cases: in vivo
[1] = system: Heliothis virescens (Tobacco Budworm); assay: Heliothis virescens eggs on artificial diet; conditions: 120 h, read-out: egg or larval mortality
Protocol: Heliothis virescens (Tobacco Budworm):
Eggs (0-24 h old) were placed in 24-well microtiter plates on artificial diet and treated with aqueous test solutions prepared from 10,000 ppm DMSO stock solutions by pipetting. The samples were assessed for egg and larval mortality 5 days after infestation.

[2] = system: Spodoptera littoralis (Egyptian Cotton Leaf Worm); assay: Spodoptera littoralis cotton leaf disc spray test, L1 larvae; conditions: foliar, 72 h
Protocol: Spodoptera littoralis (Egyptian Cotton Leaf Worm)
Cotton leaf discs were placed on agar in 24-well microtiter plates and sprayed with aqueous test solutions prepared from 10,000 ppm DMSO stock solutions. After drying the leaf discs were infested with five L1 larvae. The samples were assessed for mortality 3 days after infestation.

[3] = system: Plutella xylostella (Diamond Back Moth); assay: Plutella xylostella L2 larvae on treated artificial diet; conditions: 120 h
Protocol: 24-well microtiter plates with artificial diet were treated with aqueous test solutions prepared from 10,000 ppm DMSO stock solutions by pipetting. After drying, the plates were infested with L2 larvae (10 to 15 per well). The samples were assessed for mortality 5 days after infestation.

[4] = system: Diabrotica balteata (Corn Root Worm); assay: Diabrotica balteata L2 larvae on treated artificial diet; conditions: 120 h, application rate 200 ppm, 5 days after infestation
Protocol: 24-well microtiter plates with artificial diet were treated with aqueous test solutions prepared from 10,000 ppm DMSO stock solutions by pipetting. After drying, the plates were infested with L2 larvae (6 to 10 per well). The samples were assessed for mortality 5 days after infestation.

[5] = system: Myzus persicae (Green Peach Aphid); assay: Myzus persicae sucrose solution feeding test through Parafilm; conditions: 120 h, test rate 12 ppm, 5 days after infestation
Protocol: Myzus persicae (Green Peach Aphid)
Test compounds from 10,000 ppm DMSO stock solutions were applied by pipette into 24-well microtiter plates and mixed with sucrose solution. The plates were closed with a stretched Parafilm. A plastic stencil with 24 holes was placed onto the plate and infested pea seedlings were placed directly on the Parafilm. The infested plate was closed with a gel blotting paper and another plastic stencil and then turned upside down. The samples were assessed for mortality 5 days after infestation.

[6] = system: Thrips tabaci (Onion Thrips); assay: Thrips tabaci sunflower leaf disc spray test; conditions: foliar, 144 h, application rate 200 ppm, mixed ages on sunflower leaf discs, 6 days after infestation
Protocol: Thrips tabaci (Onion Thrips):
Sunflower leaf discs were placed on agar in 24-well microtiter plates and sprayed with aqueous test solutions prepared from 10,000 ppm DMSO stock solutions. After drying the leaf discs were infested with a thrips population of mixed ages. The samples were assessed for mortality 6 days after infestation.

[7] = system: Tetranychus urticae (Two-Spotted Spider Mite); assay: Tetranychus urticae bean leaf disc spray test; conditions: foliar, 192 h, application rate 200 ppm, mixed population (mobile stages) on bean leaf discs, 8 days after infestation
Protocol: Tetranychus urticae (Two-Spotted Spider Mite):
Bean leaf discs on agar in 24-well microtiter plates were sprayed with aqueous test solutions prepared from 10,000 ppm DMSO stock solutions. After drying the leaf discs were infested with a mite population of mixed ages. The samples were assessed for mortality on mixed population (mobile stages) 8 days after infestation.

[8] = system: Diabrotica balteata, (Corn Root Worm); assay: Diabrotica balteata L2 larvae on sprayed maize sprouts; conditions: 96 h, application rate 200 ppm, 4 days after infestation
Protocol: Maize sprouts, placed on an agar layer in 24-well microtiter plates were treated with aqueous test solutions prepared from 10,000 ppm DMSO stock solutions by spraying. After drying, the plates were infested with L2 larvae (6 to 10 per well). The samples were assessed for mortality 4 days after infestation.

[9] = application rate 200 ppm, eggs on artificial diet, 5 days after infestation

CC1(C(=O)NCSc2ccc(C3=NOC(c4cc(Cl)cc(Cl)c4)(C(F)(F)F)C3)cc2Br)CC1 (stereo not shown) [Compound A4, N-[[2-bromo-4-[5-(3,5-dichlorophenyl)-5-(trifluoromethyl)-4H-isoxazol-3-yl]phenyl]sulfanylmethyl]-1-methyl-cyclopropanecarboxamide]
≥ 80%: mortality at 200 ppm [1]

O=C(NCSc1ccc(C2=NOC(c3cc(Cl)cc(Cl)c3)(C(F)(F)F)C2)cc1Br)C1CC1 (stereo not shown) [Compound A3, N-[[2-bromo-4-[5-(3,5-dichlorophenyl)-5-(trifluoromethyl)-4H-isoxazol-3-yl]phenyl]sulfanylmethyl]cyclopropanecarboxamide]
≥ 80%: mortality at 200 ppm [2] | mortality at 200 ppm [1] | mortality at 200 ppm [3] | mortality at 200 ppm [4] | mortality at 12 ppm [5] | mortality at 200 ppm [6] | mortality at 200 ppm [7]

O=C(NCSc1ccc(C2=NOC(c3cc(Cl)cc(Cl)c3)(C(F)(F)F)C2)cc1Br)c1ccccc1 (stereo not shown) [Compound A2, N-[[2-bromo-4-[5-(3,5-dichlorophenyl)-5-(trifluoromethyl)-4H-isoxazol-3-yl]phenyl]sulfanylmethyl]benzamide]
≥ 80%: mortality at 200 ppm [1] | mortality at 200 ppm [3]

CC(C)C(=O)NCSc1ccc(C2=CSC(c3cc(Cl)cc(Cl)c3)(C(F)(F)F)C2)cc1Br (stereo not shown) [Compound C2, N-[[2-bromo-4-[2-(3,5-dichlorophenyl)-2-(trifluoromethyl)-3H-thiophen-4-yl]phenyl]sulfanylmethyl]-2-methyl-propanamide]
≥ 80%: mortality at 200 ppm [1, 9]

CC(=O)NCSc1ccc(C2=NOC(c3cc(Cl)cc(Cl)c3)(C(F)(F)F)C2)cc1Br (stereo not shown) [Compound A1, N-[[2-bromo-4-[5-(3,5-dichlorophenyl)-5-(trifluoromethyl)-4H-isoxazol-3-yl]phenyl]sulfanylmethyl]acetamide]
≥ 80%: mortality at 200 ppm [2] | mortality at 200 ppm [1] | mortality at 200 ppm [3] | mortality at 200 ppm [4] | mortality at 12 ppm [5] | mortality at 200 ppm [6] | mortality at 200 ppm [7]

CC(=O)NCSc1ccc(C2=CSC(c3cc(Cl)cc(Cl)c3)(C(F)(F)F)C2)cc1Br (stereo not shown) [Compound C1, N-[[2-bromo-4-[2-(3,5-dichlorophenyl)-2-(trifluoromethyl)-3H-thiophen-4-yl]phenyl]sulfanylmethyl]acetamide]
≥ 80%: mortality at 200 ppm ([2]; application rate 200 ppm, L1 larvae on cotton leaf discs, 3 days after infestation, read-out: mortality) | mortality at 200 ppm [1, 9] | mortality at 200 ppm ([3]; application rate 200 ppm, L2 larvae on artificial diet, 5 days after infestation, read-out: mortality) | mortality at 200 ppm [8]
